Laboratory results: patent US20260116921A1, “PEPTIDE INHIBITORS OF INTERLEUKIN-23 RECEPTOR AND THEIR USE TO TREAT INFLAMMATORY DISEASES” (priority 2018, published 2026)
Numbered stars: 1 amine (or outer) side, 2 acyl side, 3 side chain; on linkers, the order of the positions; unused ones are H or OH. Bridge positions count the residues as written; N and C are the ends. Square brackets hold non-standard residues; d marks the D form. Peptide text beside a SMILES is read from it. X2 = CCCc1cccc2c(C[C@H](N[*:1])C(=O)[*:2])c[nH]c12; X1 = CCc1cccc2c(C[C@H](N[*:1])C(=O)[*:2])c[nH]c12; Trp(7-Me) = Cc1cccc2c(C[C@H](N)C(=O)O)c[nH]c12; Trp(1-Me) = Cn1cc(C[C@H](N)C(=O)O)c2ccccc21; 2Nal = N[C@@H](Cc1ccc2ccccc2c1)C(=O)O; AEF = NCCOc1ccc(C[C@H](N)C(=O)O)cc1; Cit = NC(=O)NCCC[C@H](N)C(=O)O; Pen = CC(C)(S)[C@H](N)C(=O)O; αMeK = C[C@](N)(CCCCN)C(=O)O; βAla = NCCC(=O)O

T1: IL-23R (Homo sapiens, UniProt Q5VWK5)
T1 sequence (Q5VWK5 24-629): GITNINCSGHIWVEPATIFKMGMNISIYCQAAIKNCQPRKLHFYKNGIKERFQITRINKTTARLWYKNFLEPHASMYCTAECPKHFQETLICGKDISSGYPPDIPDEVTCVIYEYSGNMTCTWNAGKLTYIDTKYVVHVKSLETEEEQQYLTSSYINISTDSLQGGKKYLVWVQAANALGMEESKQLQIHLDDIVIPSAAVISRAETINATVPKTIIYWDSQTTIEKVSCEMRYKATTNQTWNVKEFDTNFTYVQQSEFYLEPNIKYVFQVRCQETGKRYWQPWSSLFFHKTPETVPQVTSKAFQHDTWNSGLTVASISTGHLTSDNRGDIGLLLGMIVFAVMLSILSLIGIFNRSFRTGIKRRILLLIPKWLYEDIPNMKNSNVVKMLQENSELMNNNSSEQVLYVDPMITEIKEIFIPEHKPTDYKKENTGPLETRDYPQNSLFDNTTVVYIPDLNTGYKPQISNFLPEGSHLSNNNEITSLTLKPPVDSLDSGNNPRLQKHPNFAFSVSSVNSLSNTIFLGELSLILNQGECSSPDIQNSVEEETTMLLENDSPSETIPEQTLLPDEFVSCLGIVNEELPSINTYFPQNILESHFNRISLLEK

T2: IL-23R (human, UniProt Q5VWK5 24-629)
T2 sequence (looked up): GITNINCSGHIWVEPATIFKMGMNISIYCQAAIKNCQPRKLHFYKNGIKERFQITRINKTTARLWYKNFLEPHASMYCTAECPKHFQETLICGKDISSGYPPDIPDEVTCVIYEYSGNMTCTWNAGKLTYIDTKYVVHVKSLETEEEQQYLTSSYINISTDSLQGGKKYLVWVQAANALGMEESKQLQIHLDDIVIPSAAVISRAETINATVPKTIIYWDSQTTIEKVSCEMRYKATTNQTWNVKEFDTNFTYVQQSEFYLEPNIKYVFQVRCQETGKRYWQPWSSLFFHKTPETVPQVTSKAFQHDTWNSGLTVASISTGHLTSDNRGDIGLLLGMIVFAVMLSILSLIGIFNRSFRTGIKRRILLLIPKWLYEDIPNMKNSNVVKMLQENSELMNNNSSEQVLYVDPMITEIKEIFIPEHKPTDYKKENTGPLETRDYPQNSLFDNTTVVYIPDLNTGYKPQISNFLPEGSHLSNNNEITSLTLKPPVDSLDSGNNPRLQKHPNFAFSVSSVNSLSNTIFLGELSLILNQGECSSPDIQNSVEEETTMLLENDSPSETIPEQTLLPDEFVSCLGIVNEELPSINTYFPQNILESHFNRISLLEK


How the values were obtained:
in vitro [1] = conditions: human, 20% fecal homogenate (supernatant), anaerobic, pH 6.8
Method: Fecal homogenate (20%) was prepared by adding 4 mL of growth medium (1 liter contains 2 g peptone water powder, 2 g yeast extract, 0.1 g NaCl, 0.04 g KH2PO4, 0.01 g CaCl2·6H2O, 0.01 g MgSO4·7H2O, 2 mL Tween 80, 0.5 g bile salts, 0.5 g L-cysteine HCl, 2 g NaHCO3, and 10 μL Vitamin K, pH adjusted to 6.8, and sterilized by filtration through a 0.22 μm filter) to every gram of feces (pooled freshly collected human or cynomolgus monkey feces). The suspension was vortexed to break up large clumps, and homogenized using a bead mill homogenizer. Centrifuged the homogenate at 2800×g for 15 min. The supernatant is taken out and used for incubations. DMSO stocks (10 mM) were first prepared for the test compounds. Incubations were performed in an anaerobic chamber conditioned at 37° C. Aliquots of the DMSO solutions were dosed into 1.0 mL aliquots of 20% fecal homogenate, which are pre-warmed to 37° C. The final test compound concentration was 20 μM. At each timepoint (0, 20 min, 1, 3, 6, or 24 hours), 100 μL aliquot of each incubation mixture is taken out and added to separate tubes containing 300 μL of 50% acetonitrile/50% methanol and an internal standard to terminate the reaction. Samples were taken out of the anaerobic chamber and stored at 4° C. until the end of the experiment. After the final timepoint is sampled, the tubes were mixed and then centrifuged at 3,000 rpm for 10 minutes. Aliquots of the supernatant were removed, diluted 1:1 into distilled water containing 0.1% formic acid, and analyzed by LC/MS/MS. Percent remaining at each timepoint was calculated based on the peak area response ratio of test to compound to internal standard. Time 0 was set to 100%, and all later timepoints were calculated relative to time 0. Half-lives were calculated by fitting to a first-order exponential decay equation using Graphpad or Excel.

IL-23R [2] = molecular target: T1, IL-23R; test: DB cells IL23R pSTAT3 cell assay (pStat3 HTRF); format: cell-based; conditions: Table E3; DB cells, IL-23 0.5 nM, 30 minutes at 37° C.; read-out: pStat3 HTRF (IC50)
Procedure, shortened: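 DB cells (5×10E5/well, RPMI-1640 + 10% FBS) stimulated with 0.5 nM final IL-23 plus serially diluted test peptides for 30 min at 37 °C, 5% CO2. Phospho-STAT3 (Tyr705) in lysates measured by HTRF using a two-plate protocol.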

in vitro [3] = conditions: both, SD, rat, plasma (EDTA)
in vitro [4] = format: in vitro ADME; parameters: half-life: dose or concentration left out as unconfirmed; conditions: simulated intestinal fluid (SIF) with pancreatin, pH 6.8, 37° C., § matrix is 100 fold dilution of standard SIF concentration, read-out: SIF t½ (converted)
in vitro [5] = conditions: cynomolgus monkey, 20% fecal homogenate (supernatant), anaerobic, pH 6.8
IL-23R [6] = molecular target: T2, IL-23R; test: cell-based or functional assay

Row | Molecule | half-life at 20 μM (in vitro [1]) | IC50 (IL-23R [2]) | half-life at 20 μM (in vitro [3]) | half-life (in vitro [4]) | half-life at 20 μM (in vitro [5]) | pStat3 HTRF (nM) IC50 (IL-23R [6])
1 | CC(=O)NCCCC[C@H](NC(=O)C1(NC(=O)[C@H](Cc2ccc3ccccc3c2)NC(=O)[C@H](Cc2ccc(OCCN)cc2)NC(=O)[C@H]2NC(=O)[C@H](CCC(N)=O)NC(=O)[C@H](Cc3c[nH]c4c(C)cccc34)NC(=O)[C@H]([C@@H](C)O)NC(=O)[C@H](CC(N)=O)NC(=O)[C@@H](NC(C)=O)C(C)(C)SSC2(C)C)CCCCC1)C(=O)N[C@@H](CC(N)=O)C(=O)NCCC(N)=O [compound 274] | > 24 h | < 1 nM | 5 h | 5 h | 4 h | –
2 | CCC(CC)(NC(=O)[C@H](Cc1ccc2ccccc2c1)NC(=O)[C@H](Cc1ccc(OCCN)cc1)NC(=O)[C@H]1NC(=O)[C@H](CCC(N)=O)NC(=O)[C@H](Cc2c[nH]c3c(C)cccc23)NC(=O)[C@H]([C@@H](C)O)NC(=O)[C@H](CC(N)=O)NC(=O)[C@@H](NC(C)=O)C(C)(C)SSC1(C)C)C(=O)N[C@@H](CCCCNC(C)=O)C(=O)N[C@@H](CC(N)=O)C(=O)NCCC(N)=O [compound 276] | > 24 h | < 1 nM | 5 h | 13 h | 13 h | –
3 | CC(=O)N[C@@H]1C(=O)N[C@@H](CC(N)=O)C(=O)N[C@@H]([C@@H](C)O)C(=O)N[C@@H](Cc2c[nH]c3c(C)cccc23)C(=O)N[C@@H](CCC(N)=O)C(=O)N[C@H](C(=O)N[C@@H](Cc2ccc(OCCN)cc2)C(=O)N[C@@H](Cc2ccc3ccccc3c2)C(=O)N[C@@](C)(CCCCN)C(=O)N[C@@H](CCCNC(N)=O)C(=O)NCCC(=O)NCCC(N)=O)C(C)(C)SSC1(C)C [compound 279] | > 24 h | 1 to 10 nM | > 24 h | 7 h | > 24 h | –
4 | CC(=O)NCCCC[C@H](NC(=O)[C@](C)(CCCCN)NC(=O)[C@H](Cc1ccc2ccccc2c1)NC(=O)[C@H](Cc1ccc(OCCN)cc1)NC(=O)[C@H]1NC(=O)[C@H](CCCNC(N)=O)NC(=O)[C@H](Cc2cn(C)c3ccccc23)NC(=O)[C@H]([C@@H](C)O)NC(=O)[C@H](CC(N)=O)NC(=O)[C@@H](NC(C)=O)C(C)(C)SSC1(C)C)C(=O)NCCC(=O)NCCC(N)=O [compound 280] (Ac-[Pen]NT[Trp(1-Me)][Cit][Pen][AEF][2Nal][αMeK]K(Ac)[βAla][βAla]-NH2; disulfide 1-6) | > 24 h | 10 to 100 nM | > 24 h | 8 h | > 24 h | –
5 | CCc1cccc2c(C[C@@H]3NC(=O)[C@H]([C@@H](C)O)NC(=O)[C@H](CC(N)=O)NC(=O)[C@@H](NC(C)=O)C(C)(C)SSC(C)(C)[C@@H](C(=O)N[C@@H](Cc4ccc(OCCN)cc4)C(=O)N[C@@H](Cc4ccc5ccccc5c4)C(=O)N[C@@](C)(CCCCN)C(=O)N[C@@H](CCCCNC(C)=O)C(=O)N[C@@H](CC(N)=O)C(=O)N[C@H](CC(C)C)C(N)=O)NC(=O)[C@H](CCCCNC(C)=O)NC3=O)c[nH]c12 [compound 284] (Ac-[Pen]NT[X1]K(Ac)[Pen][AEF][2Nal][αMeK]K(Ac)N[dL]-NH2; disulfide 1-6) | > 24 h | < 1 nM | > 24 h | 2 h | > 24 h | –
6 | CCCc1cccc2c(C[C@@H]3NC(=O)[C@H]([C@@H](C)O)NC(=O)[C@H](CC(N)=O)NC(=O)[C@@H](NC(C)=O)C(C)(C)SSC(C)(C)[C@@H](C(=O)N[C@@H](Cc4ccc(OCCN)cc4)C(=O)N[C@@H](Cc4ccc5ccccc5c4)C(=O)N[C@@](C)(CCCCN)C(=O)N[C@@H](CCCCNC(C)=O)C(=O)N[C@@H](CC(N)=O)C(=O)N[C@H](CC(C)C)C(N)=O)NC(=O)[C@H](CCCCNC(C)=O)NC3=O)c[nH]c12 [compound 285] (Ac-[Pen]NT[X2]K(Ac)[Pen][AEF][2Nal][αMeK]K(Ac)N[dL]-NH2; disulfide 1-6) | > 24 h | < 1 nM | > 24 h | 9 h | > 24 h | –
7 | COc1cccc2c(C[C@@H]3NC(=O)[C@H]([C@@H](C)O)NC(=O)[C@H](CC(N)=O)NC(=O)[C@@H](NC(C)=O)C(C)(C)SSC(C)(C)[C@@H](C(=O)N[C@@H](Cc4ccc(OCCN)cc4)C(=O)N[C@@H](Cc4ccc5ccccc5c4)C(=O)N[C@@](C)(CCCCN)C(=O)N[C@@H](CCCCNC(C)=O)C(=O)N[C@@H](CC(N)=O)C(=O)N[C@H](CC(C)C)C(N)=O)NC(=O)[C@H](CCCCNC(C)=O)NC3=O)c[nH]c12 [compound 288] | > 24 h | 1 to 10 nM | > 24 h | 12 h | > 24 h | –
8 | CC(=O)NCCCC[C@@H]1NC(=O)[C@H](Cc2c[nH]c3c(C)cccc23)NC(=O)[C@H]([C@@H](C)O)NC(=O)[C@H](CC(N)=O)NC(=O)[C@@H](NC(C)=O)C(C)(C)SSC(C)(C)[C@@H](C(=O)N[C@@H](Cc2ccc3ccccc3c2)C(=O)N[C@@H](Cc2ccc3ccccc3c2)C(=O)N[C@@](C)(CCCCN)C(=O)N[C@@H](CCCCNC(C)=O)C(=O)N[C@@H](CC(N)=O)C(=O)N[C@H](CC(C)C)C(N)=O)NC1=O [compound 289] (Ac-[Pen]NT[Trp(7-Me)]K(Ac)[Pen][2Nal][2Nal][αMeK]K(Ac)N[dL]-NH2; disulfide 1-6) | > 24 h | 1 to 10 nM | > 24 h | 12 h | > 24 h | –
9 | CC(=O)NCCCC[C@@H]1NC(=O)[C@H](Cc2c[nH]c3c(C)cccc23)NC(=O)[C@H]([C@@H](C)O)NC(=O)[C@H](CC(N)=O)NC(=O)[C@@H](NC(C)=O)C(C)(C)SSC(C)(C)[C@@H](C(=O)N[C@@H](Cc2c[nH]cn2)C(=O)N[C@@H](Cc2ccc3ccccc3c2)C(=O)N[C@@](C)(CCCCN)C(=O)N[C@@H](CCCCNC(C)=O)C(=O)N[C@@H](CC(N)=O)C(=O)N[C@H](CC(C)C)C(N)=O)NC1=O [compound 290] (Ac-[Pen]NT[Trp(7-Me)]K(Ac)[Pen]H[2Nal][αMeK]K(Ac)N[dL]-NH2; disulfide 1-6) | > 24 h | 1 to 10 nM | > 24 h | 16 h | > 24 h | –
10 | Ac-[Pen]NT[Trp(2,5,7-tritBu)]Q[Pen][AEF][2Nal][αMeK]K(Ac)N[βAla]-NH2 (disulfide 1-6) [SEQ ID NO: 233] | – | – | – | – | – | > 100 nM
